As usually defined, the EC50 is the midpoint of the concentration-response curve.

Molecules are shown by their SMILES.

The experiment has as its system Influenza A virus. As to the kind of experiment: Antiviral activity against oseltamivir-resistant Influenza A virus A/H1N1/pdm09 infected in MDCK cells assessed as inhibition of plaque formation measured after 2 days. Particulars: 48 h.
Turning to `CCC(CC)O[C@@H]1C=C(C(=O)O)C[C@H](NCc2ccc(OCc3cccc(B(O)O)c3)cc2F)[C@H]1NC(C)=O`, the EC50 is 170 nM.
Next, `CCC(CC)O[C@@H]1C=C(C(=O)O)C[C@H](NCc2ccc(OCc3cccc(B(O)O)c3)cc2C)[C@H]1NC(C)=O`: 30 nM.
For the compound `CCC(CC)O[C@@H]1C=C(C(=O)O)C[C@H](NCc2ccc(OCc3ccc(B(O)O)cc3)cc2Cl)[C@H]1NC(C)=O`, the EC50 was found to be 400 nM.
Consider `CCC(CC)O[C@@H]1C=C(C(=O)O)C[C@H](NCc2ccc(OCc3ccc(B(O)O)cc3)cc2F)[C@H]1NC(C)=O`, for which the concentration giving a half-maximal response (EC50) amounted to 580 nM.
Regarding `CCC(CC)O[C@@H]1C=C(C(=O)O)C[C@H](NCc2c(C)cc(OCc3cccc(B(O)O)c3)cc2C)[C@H]1NC(C)=O`, the EC50 turned out to be 150 nM.
In the case of `CCC(CC)O[C@@H]1C=C(C(=O)O)C[C@H](NCc2ccc(OCc3ccc(B(O)O)cc3)cc2C)[C@H]1NC(C)=O` it was 40 nM; in that of `CCC(CC)O[C@@H]1C=C(C(=O)O)C[C@H](NCc2ccc(OCc3cccc(B(O)O)c3)cc2Cl)[C@H]1NC(C)=O`, 30 nM.
In the case of `CCC(CC)O[C@@H]1C=C(C(=O)O)C[C@H](N)[C@H]1NC(C)=O` [OSELTAMIVIR CARBOXYLATE] it was above 20000 nM.

The values above are taken from ChEMBL document CHEMBL6078687 (J Med Chem, 2024).
